Assay results from US12569482B2, “Methods and compositions for treating idiopathic pulmonary fibrosis” (priority 2018, dated 2026).

Tested on: bleomycin-induced lung fibrosis
Experiment: Bleomycin induced IPF mouse model, Example 1 (oral nintedanib or fluconazole)
Type: in vivo, C57BL/6 mice
Details: nintedanib 60 mg/kg
Experimental: Forty male C57BL/6 mice (Nanjing Biomedical Research Institute of Nanjing University) were randomly divided into two groups on Day 1, 10 animals for one group (referred to as Control group or Group 1) and 30 for the other. The animals in the Control group were administered intratracheally with PBS at a dose of 2 mL/kg while the others were administered intratracheally with bleomycin (Cat #HY-17565, MCE) at a dose of 0.66 mg/kg.
On Day 5, the mice with bleomycin treatment were divided into three groups at random (referred to as Group 2-4, n=10), and orally administered with vehicle (0.5% Methyl cellulose), nintedanib (Kangmanlin Co. Ltd., prepared in 0.5% Methyl cellulose with a final concentration of 6.0 mg/mL) and fluconazole (Kangmanlin Co. Ltd., prepared in 0.5% Methyl cellulose with a final concentration of 7.0 mg/mL) at daily doses of 10 mL/kg, 60 mg/kg and 70 mg/kg, respectively. The mice in the Control group was administered with vehicle (0.5% Methyl cellulose) at a daily dose of 10 mL/kg. Mice body weights were measured and recorded on Day 1, 5, 12, 19 and 25.
Two hours post drug administration on Day 25, all animals were anaesthetized with pentobarbital (i.p., 65 mg/kg). Blood samples were collected from orbital vein, put in tubes pre-coated with EDTA-K2 (KANG JIAN, Cat #KJ202), centrifuged at 4000×g for 10 minutes at 4° C. and then stored at −80° C. for determination of plasma drug levels. Then, the trachea was exposed, and bronchoalveolar lavage fluid (BALF) was collected from each mouse by injecting 0.3 mL of saline into trachea close to the larynx for three times. After BALF collection, mice were perfused with saline, and all four lung lobes were collected from each mouse, fixed in 10% NBF solution, embedded in paraffin and cut into 5 μm-thick sections. The sections were de-paraffinized with xylene and ethanol and subject to Haematoxylin-Eosin, Masson Trichrome and α-SMA IHC staining.
The bronchoalveolar lavage fluid of 20 μL was mixed with 20 μL of trypan blue to determine the cell number. Then, the cells in the BALF were concentrated using a Cytospinat at 1,000 rpm for 5 minutes, smeared on slides and then stained with Diff-Quik stain. Cell types (alveolar macrophages, neutrophils, or lymphocytes) were determined by counting at least 200 cells using a standard hemocytometer. The rest BALFs were centrifuged and supernatants were collected and stored at −80° C. for soluble collagen analysis.
The Haematoxylin-Eosin staining was used to identify and quantitate the inflammatory cells in the tissues, and the total inflammation area was calculated using the AperioScanScope software.
The sections with Masson Trichrome staining were scored for pulmonary fibrosis according to the modified Ashcroft fibrosis rating criteria in Table 1 below. Each lung lobe was divided into 4 parts according to the distance from the main bronchus, i.e., the upper, upper middle, lower middle and lower parts, which were scored separately and averaged later.
α-SMA is a well characterized marker in fibrosis. Immunohistochemistry staining of α-SMA is often used to characterize and quantitate the tissue fibrosis. Increased staining of α-SMA often reflects accumulation of collagen-producing myofibroblasts. Before α-SMA IHC staining, the de-paraffinized sections were treated with citrate antigen retrieval solution (0.01 N citrate buffer, pH 6.0) at 100° C. for 10 minutes, and then incubated with rabbit polyclonal anti-α-SMA (1:400, ab5694, Abcam) for 1 hour followed by goat anti-rabbit HRP (K4003, Dako). DAB substrate kit (DAB0031, Maixin, Shanghai) was used for chromogenic staining. All sections were further counter-stained with hematoxylin. […] α-SMA staining areas were calculated using the AperioImageScope program.
Statistical analysis was performed using student's T-test, one-way or two-way ANOVA followed by post-hoc Dunnett's test if significant. […] The difference was considered significant when p<0.05. *p<0.05, **p<0.01, ***[…].

## COC(=O)c1ccc2c(c1)NC(=O)/C2=C(\Nc1ccc(N(C)C(=O)CN2CCN(C)CC2)cc1)c1ccccc1 [nintedanib]
Haematoxylin-Eosin staining, fluconazole 70 mg/kg p.o. daily
  reduction of lung inflammation area: 84%
Masson Trichrome staining, fluconazole 70 mg/kg p.o. daily
  reduction of modified Ashcroft score: 39%
Fluconazole 70 mg/kg daily dose
  anti-IPF activities / fibrosis related endpoint measurements (overall): efficacious
Oral daily Day 5-25
  total cell number and macrophage/monocyte number in BALF: reduced cell number to some extent
Oral daily Day 5-25, fluconazole 70 mg/kg, vs bleomycin + vehicle
  BALF collagen levels: significantly reduced collagen levels
α-SMA IHC, fluconazole 70 mg/kg p.o. daily
  reduction of α-SMA staining area: 39%
